Data on 19 compounds can be found in patent publication US7423177B2, “Carboxamide derivatives as therapeutic agents” (TransTech Pharma, Inc., priority 2001, dated 2008).

Where a name gives a salt, the structure may show the parent alone.

Assay [1] deals with T1, RAGE (sRAGE) binding to S100b (Homo sapiens, UniProt Q15109).
T1 construct: extracellular domain can be isolated by proteolysis of RAGE to generate soluble RAGE (sRAGE) comprised of the V and C domains
Description: ELISA assay: inhibition of sRAGE binding to plate-bound S100b. The following applies: ligand S100b coated on plate, concentration at which 50% signal has been inhibited, read-out: ELISA Assay IC50 (μM) S-100b. As for the experimental part:
(§1) This method is also described and claimed in co-pending U.S. Ser. No. 09/799,152 filed Mar. 5, 2001.
(§2) S100b, β-amyloid and CML (500 ng/100 μL/well) in 100 mM sodium bicarbonate/sodium carbonate buffer (pH 9.8) is loaded onto the wells of a NUNC Maxisorp flat bottom 96 -well microtitre plate. The plate is incubated at 4° C. overnight. The wells are aspirated and treated with 50 mM imidazole buffer saline (pH 7.2) (with 1 mM CaCl2/MgCl2) containing 1% bovine serum albumin (BSA) (300 μL/well) for two h at 37° C.
(§3) Test compounds are dissolved in nanopure water (concentration: 10-100 μM). DMSO may be used as co-solvent. 25 μL of test compound solution in 2% DMSO is added, along with 75 μL SRAGE (4.0×10^−4 mg/mL FAC) to each well and samples are incubated for 1 h at 37° C. The wells are washed 3 times with 155 mM NaCl pH 7.2 buffer saline and are soaked 10 seconds between each wash.
(§4) Non-Radioactive Binding is Performed by Adding:
(§5) 10 μL Biotinylated goat F(ab′)2 Anti-mouse IgG. (8.0×10^−4 mg/mL, FAC)
(§6) 10 μL Alk-phos-Sterptavidin (3×10^−3 mg/mL FAC)
(§7) 10 μL Polyclonal antibody for sRAGE (FAC 6.0×10^−3 mg/mL)
(§8) to 5 mL 50 mM imidazole buffer saline (pH 7.2) containing 0.2% bovine serum albumin and 1 mM […]. The mixture is incubated for 30 minutes at 37° C. 100 μL complex is added to each well and incubation is allowed to proceed at rt for 1 h. Wells are washed 3 times with wash buffer and soaked 10 s between each wash. 100 μL 1 mg/mL (pNPP) in 1 M diethanolamine (pH adjusted to 9.8 with HCl) is added. Color is allowed to develop in the dark for 1 to 2 h at rt. The reaction is quenched with 10 μL of stop solution (0.5 N NaOH in 50% ethanol) and the absorbance is measured spectrophotometrically with a microplate reader at 405 nm.

The target in assay [2] is T2, RAGE (sRAGE) binding to β-amyloid (Homo sapiens, UniProt Q15109).
T2 construct: extracellular domain can be isolated by proteolysis of RAGE to generate soluble RAGE (sRAGE) comprised of the V and C domains
The assay can be described thus: ELISA assay: inhibition of sRAGE binding to plate-bound β-amyloid. The note with it: ligand β-amyloid coated on plate, concentration at which 50% signal has been inhibited. Here is the method: as §1, §2, §3, §4, §5, §6, §7, §8

For assay [3], the target named is T3, RAGE (sRAGE) binding to Carboxymethyl Lysine (CML) (Homo sapiens, UniProt Q15109).
T3 construct: extracellular domain can be isolated by proteolysis of RAGE to generate soluble RAGE (sRAGE) comprised of the V and C domains
The assay can be described thus: ELISA assay: inhibition of sRAGE binding to plate-bound CML. The following applies: ligand CML coated on plate, concentration at which 50% signal has been inhibited. Here is the method: as §1, §2, §3, §4, §5, §6, §7, §8

T2 sequence (Q15109 23-342 limits assumed): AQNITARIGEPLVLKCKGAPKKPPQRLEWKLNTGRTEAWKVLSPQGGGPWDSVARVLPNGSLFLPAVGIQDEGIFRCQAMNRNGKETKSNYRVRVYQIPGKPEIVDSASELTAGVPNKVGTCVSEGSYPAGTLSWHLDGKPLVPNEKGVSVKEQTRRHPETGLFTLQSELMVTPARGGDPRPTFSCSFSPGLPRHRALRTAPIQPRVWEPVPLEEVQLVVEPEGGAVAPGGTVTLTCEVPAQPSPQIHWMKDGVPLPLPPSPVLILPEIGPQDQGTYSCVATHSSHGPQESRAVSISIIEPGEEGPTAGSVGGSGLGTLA
T1 sequence (Q15109 23-342 limits assumed): as above
T3 sequence (Q15109 23-342 limits assumed): as above

Turning to `CCCCOc1cc(C(=O)OCCN(CC)CC)ccc1NC(=O)[C@@H]1Cc2ccccc2CN1` [Example 6, (3S)-1,2,3,4-Tetrahydroisoquinoline-3-carboxylic Acid 4-Diethylaminoethoxycarbonyl-2-butoxyaniline Amide Dihydrochloride], the IC50 in assay [1] lay within 10 to 20 µM; in assay [2], 10 to 20 µM; in assay [3], 5 to 10 µM.

Take `CCN(CC)CCCOc1ccc(NC(=O)CC(N)c2ccccc2OC(C)(C)C)c(OCCCN(CC)CC)c1` (stereo not drawn) [Example 11, 3-amino-3-(2-tert-butoxyphenyl)propionic Acid 2,4-Di-(3-diethylaminopropoxy)aniline Amide]: the IC50 in assay [1], in assay [2] and in assay [3] was 1 to 5 µM throughout.

As for `CCN(CC)CCCOc1ccc(N(CC2CCCC2)C(=O)[C@@H](Cc2ccc(OCc3ccccc3)cc2)NC(=O)OC(C)(C)C)cc1` [Example 14, (2R)-2-tert-butoxycarbonylamino-3-[4-(benzyloxy)phenyl]propionic Acid 4-(3-diethylaminopropoxy)-N-cyclopentylmethylaniline Amide], the IC50 in assay [1], in assay [2] and in assay [3] was 1 to 5 µM each time.

`CCN(CC)CCCOc1ccc(NC(=O)CC(N)c2cccc(OC(C)(C)C)c2)c(OCCCN(CC)CC)c1` (stereo not drawn) [Example 3, 3-(3-Tert-butoxyphenyl)-3-aminopropionic Acid 2,4-Di-(3-diethylaminopropoxy)aniline Amide]: the IC50 in assay [1], in assay [2] and in assay [3] was 1 to 5 µM each time.

As for `CCCCN(C(=O)[C@H](N)Cc1ccc(OCc2ccccc2)cc1)c1ccc(OCCCN(CC)CC)cc1` [Example 19, (2R)-2-amino-3-[4-(benzyloxy)phenyl]propionic Acid 4-(3-diethylaminopropoxy)-N-butylaniline Amide], the IC50 in assay [1], in assay [2] and in assay [3] was 1 to 5 µM in each case.

In the case of `CCCCOc1cc(OCCCN(CC)CC)ccc1NC(=O)C(N)CC1CCN(Cc2ccccc2)CC1` (stereo not drawn) [Example 25, 3-(1-Benzylpiperidin-4-yl)-2-aminopropionic Acid 4-Diethylaminopropoxy-2-butoxyaniline Amide], the results for the IC50 in assay [1], in assay [2] and in assay [3] were 5 to 10 µM, 10 to 20 µM and 10 to 20 µM, respectively.

For `CCCCN(C(=O)[C@@H](Cc1ccc(OCc2ccccc2)cc1)NC(=O)OC(C)(C)C)c1ccc(OCCCN(CC)CC)cc1` [Example 18, (2R)-2-tert-butoxycarbonylamino-3-[4-(benzyloxy)phenyl]propionic Acid 4-(3-diethylaminopropoxy)-N-butylaniline Amide], the IC50 in assay [1], in assay [2] and in assay [3] was 1 to 5 µM throughout.

For the compound “(2R)-2-tert-butoxycarbonylamino-3-[4-(benzyloxy)phenyl]propionic Acid 4-(3-diethylaminopropoxy)-N-isopropylaniline Amide [Example 15]”, the IC50 in assay [1] fell in the range of 1 to 5 µM; in assay [2], 1 to 5 µM; in assay [3], 5 to 10 µM.

`CCCCN(C(=O)[C@H](N)Cc1ccc(OCc2ccccc2)cc1)c1cccc(OCCCN(CC)CC)c1` [Example 21, (2R)-2-amino-3-[4-(benzyloxy)phenyl]propionic Acid 3-(3-diethylaminopropoxy)-N-butylaniline Amide]: the IC50 in assay [1], in assay [2] and in assay [3] was 1 to 5 µM throughout.

`CCN(CC)CCCOc1ccc(NC(=O)CC(NC(=O)OCC2c3ccccc3-c3ccccc32)c2ccc(OC(C)(C)C)cc2)c(OCCCN(CC)CC)c1` (stereo not drawn) [Example 8, 3-(4-Tert-butoxyphenyl)-3-(9-fluorenylmethoxycarbonylamino)propionic Acid 2,4-Di-(3-diethylaminopropoxy)aniline Amide]: the IC50 in assay [1], in assay [2] and in assay [3] was 0.5 to 1 µM throughout.

Regarding `CCCCOc1cc(C(=O)OCCN(CC)CC)ccc1NC(=O)C(N)CC1CCOCC1` (stereo not drawn) [Example 4, 3-(4-Tetrahydropyranyl)-2-aminopropionic Acid 4-Diethylaminoethoxycarbonyl-2-butoxyaniline Amide Dihydrochloride], the IC50 in assay [1] lay in the range of 10 to 20 µM.

As to `CCN(CC)CCCOc1ccc(NC(=O)CCc2ccc(OCc3ccccc3)cc2)c(OCCCN(CC)CC)c1` [Example 1, 3-(4-Benzyloxyphenyl)propionic Acid 2,4-Di-(3-Diethylamino-1-propoxy)aniline Amide], the IC50 in assay [1] was in the range of 1 to 5 µM.

Consider `CCN(CC)CCCOc1ccc(N(Cc2ccccc2)C(=O)[C@@H](Cc2ccc(OCc3ccccc3)cc2)NC(=O)OC(C)(C)C)cc1` [Example 13, (2R)-2-tert-butoxycarbonylamino-3-[4-(benzyloxy)phenyl]propionic Acid 4-(3-diethylaminopropoxy)-N-benzylaniline Amide], for which the IC50 in assay [1], in assay [2] and in assay [3] was 5 to 10 µM in each case.

For `CCN(CC)CCCOc1ccc(N(CC2CCCC2)C(=O)[C@H](N)Cc2ccc(OCc3ccccc3)cc2)cc1` [Example 17, (2R)-2-amino-3-[4-(benzyloxy)phenyl]propionic Acid 4-(3-diethylaminopropoxy)-N-cyclopentylmethylaniline Amide], the IC50 in assay [1] fell in the range of 5 to 10 µM; in assay [2], 10 to 20 µM; in assay [3], 10 to 20 µM.

For `CCCCOc1cc(OCCCN(CC)CC)ccc1NC(=O)C(CC1CCN(C(=O)OCc2ccccc2)CC1)NC(=O)OCC1c2ccccc2-c2ccccc21` (stereo not drawn) [Example 26, 3-(1 -Benzyloxycarbonylpiperidin-4-yl)-2-(9-fluorenylmethoxycarbonyamino)propionic Acid 4-Diethylaminopropoxy-2-butoxyaniline Amide], the IC50 was 1 to 5 µM in assay [1], 1 to 5 µM in assay [2] and 0.5 to 1 µM in assay [3].

On to `CCCCOc1cc(OCCCN(CC)CC)ccc1NC(=O)C(CC1CCCNC1)NC(=O)OCC1c2ccccc2-c2ccccc21` (stereo not drawn) [Example 30, 3-(Piperidin-3-yl)-2-(9-fluorenylmethoxycarbonylamino)propionic Acid 4-Diethylaminopropoxy-2-butoxyaniline Amide], for which the IC50 in assay [1], in assay [2] and in assay [3] was 0.5 to 1 µM throughout.

`CCN(CC)CCCOc1ccc(NC(=O)[C@@H]2C[C@@H](OC(C)(C)C)CN2)c(OCCCN(CC)CC)c1` [Example 5, (2S, 4R)-4-Tert-Butoxypyrrolidine-2-carboxylic acid 2,4-Di(3-diethylamino-1-propoxy)aniline Amide]: the IC50 in assay [1] was 1 to 5 µM.

For `CCN(CC)CCCOc1ccc(NC(=O)CC(NC(C)C)c2cccc(OC(C)(C)C)c2)c(OCCCN(CC)CC)c1` (stereo not drawn) [Example 12, 3-Isopropylamino-3-(3-tert-butoxyphenyl)propionic Acid 2,4-Di-(3-diethylaminopropoxy)aniline Amide], the IC50 in assay [1] was 1 to 5 µM; in assay [2], 1 to 5 µM; in assay [3], 0.5 to 1 µM.

Turning to `CCCCOc1cc(C(=O)OCCN(CC)CC)ccc1NC(=O)[C@@H](Cc1ccc(OCc2ccccc2)cc1)n1ccnc1` [Example 7, (R)-3-(4-Benzyloxyphenyl)-2-(1-imidazolyl)propionic Acid 4-Diethylaminoethoxycarbonyl-2-butoxyaniline Amide], the IC50 in assay [1] lay in the range of 0.5 to 1 µM; in assay [2] it was 1 to 5 µM; in assay [3], 1 to 5 µM.
